Where two headings read alike, the source gives them in different places.
Legend:
MRSA LAC FtsZ-mCherry = test: Colocalization of BOFP labeling with induced FtsZ-mCherry fusion protein; type: cell-based, Staphylococcus aureus; conditions: 1 µg/mL BOFP for 5 minutes; vehicle-treated and 1-treated cells
Protocol: (§1) All differential interference contrast (DIC) and fluorescence microscopy experiments were conducted using an Olympus BX50 microscope equipped with an X-cite Exacte 200 W mercury lamp, a 100× Olympus UPLSAPO oil immersion objective (1.40 aperture), as well as both Chroma ET-EGFP (FITC/Cy2) and ET mCherry, Texas Red filters. Images were captured using a QImaging Retiga R3 charge-coupled device (CCD) camera and the Ocular-Version 2.0 software package (QImaging).
To visualize the impact of treating MRSA LAC FtsZ-mCherry with 1, cells were grown to log-phase in CAMH broth and diluted to an OD600 of 0.1. […] Following this treatment, 1–5 mL of each culture was centrifuged at 15,000 × g for 1 minute and washed twice with 1 mL of PBS. The resulting cell pellets were further processed and labeled with BOFP as described above for the Gram-positive bacterial strains.

S. pyogenes (SpyFtsZ) = S. pyogenes (SpyFtsZ) (Streptococcus pyogenes, UniProt Q99YV7); test: Fluorescence anisotropy binding of BOFP to SpyFtsZ; conditions: for Kd: 50 mM Tris-HCl (pH 7.6), 50 mM KCl, 0.1 µM BOFP
Chain of S. pyogenes (SpyFtsZ) (Q99YV7 entry or part of it): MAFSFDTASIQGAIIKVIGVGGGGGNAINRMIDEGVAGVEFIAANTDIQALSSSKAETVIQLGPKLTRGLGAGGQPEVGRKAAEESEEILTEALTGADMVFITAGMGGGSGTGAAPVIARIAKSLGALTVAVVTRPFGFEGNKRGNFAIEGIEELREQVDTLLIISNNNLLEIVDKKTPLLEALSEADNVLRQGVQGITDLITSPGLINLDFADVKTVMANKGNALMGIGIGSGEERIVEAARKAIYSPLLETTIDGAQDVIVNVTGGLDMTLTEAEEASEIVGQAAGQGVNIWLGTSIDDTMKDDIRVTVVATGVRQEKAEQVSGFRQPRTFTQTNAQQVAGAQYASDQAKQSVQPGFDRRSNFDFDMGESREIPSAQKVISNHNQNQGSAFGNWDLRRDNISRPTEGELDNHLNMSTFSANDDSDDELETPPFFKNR
Protocol: (§2) Fluorescence anisotropy experiments were performed using an AVIV model ATF105 spectrofluorometer at 15, 25, or 37 °C. In these experiments, bandwidths were set to 4 nm in both the excitation and emission directions, with the excitation and emission wavelengths being set at 488 nm and 510 nm, respectively. BOFP (0.1 µM) was titrated with increasing concentrations (ranging from 0 to 12 µM) of FtsZ in 120 µL of buffer containing 50 mM Tris-HCl (pH 7.6) and 50 mM KCl. After each protein addition, the samples were equilibrated for 3 minutes, whereupon the fluorescence anisotropy was measured.
(§3) In this equation, r0 is the anisotropy of the protein-free compound, r∞ is the anisotropy of the compound in the presence of an infinite concentration of FtsZ, [C]tot is the total concentration of the compound, and [P]tot is the total concentration of protein with each addition. These analyses yielded the equilibrium dissociation constant (Kd) for each binding reaction.
(§4) The binding free energy (ΔG) at temperature T was derived from the corresponding Kd value determined at T using the following relationship:2 ΔG=−RTln(1/Kd)
(§5) The binding enthalpy (ΔH) and entropy (ΔS) were derived from linear fits of the ln(1/Kd) vs. 1/T plots shown in Figs. 3f and 5e using the following relationship:3 ln(1/Kd)=−ΔH/R(1/T)+ΔS/R
(§6) In comparative control experiments, the anisotropy of 0.1 µM BODIPY FL-COOH or BOFP alone or in the presence of SaFtsZ (10 µM), SpyFtsZ (10 µM), KpFtsZ (2 µM), or PaFtsZ (2 µM) was measured at 37 °C in the same buffer described above.

K. pneumoniae (KpFtsZ) = K. pneumoniae (KpFtsZ) (Klebsiella pneumoniae, UniProt A0A0H3GRR0); test: Fluorescence anisotropy binding of BOFP to KpFtsZ; conditions: for Kd: 50 mM Tris-HCl (pH 7.6), 50 mM KCl, 0.1 µM BOFP
Chain of K. pneumoniae (KpFtsZ) (A0A0H3GRR0 entry or part of it): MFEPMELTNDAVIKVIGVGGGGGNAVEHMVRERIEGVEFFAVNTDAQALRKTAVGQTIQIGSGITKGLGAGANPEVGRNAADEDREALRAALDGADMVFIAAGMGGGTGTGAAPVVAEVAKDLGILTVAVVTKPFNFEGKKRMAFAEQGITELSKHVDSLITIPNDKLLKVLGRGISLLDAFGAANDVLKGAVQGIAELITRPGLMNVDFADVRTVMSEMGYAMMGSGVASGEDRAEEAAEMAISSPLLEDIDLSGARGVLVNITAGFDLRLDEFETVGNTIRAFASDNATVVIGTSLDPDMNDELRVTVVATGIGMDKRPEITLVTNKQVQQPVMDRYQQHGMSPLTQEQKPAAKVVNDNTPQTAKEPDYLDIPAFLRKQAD
Protocol: as §2, §3, §4, §5, §6

[1] = system: FtsZ in K. pneumoniae ATCC 13883 cells; test: FtsZ visualization by fluorescence microscopy in live cells; type: cell-based, Klebsiella pneumoniae; conditions: 1 µg/mL for 5 minutes
Protocol: as §1
For visualizing FtsZ in Gram-negative bacteria using BOFP, E. coli ATCC 25922, K. pneumoniae ATCC 13883, P. aeruginosa ATCC 27853, and A. baumannii ATCC 19606 were grown to log-phase in CAMH broth. For each Gram-negative bacterial strain, a total of 1 mL of cell culture was centrifuged at 15,000 × g for 1 minute and washed twice with 1 mL of Tris-buffered saline (TBS) composed of 50 mM Tris-HCl (pH 7.6) and 150 mM NaCl. After the final wash, the pelleted cells were resuspended in 500 µL of TBS containing 1 µg/mL of BOFP and pentamidine isethionate (at 0.875 mg/mL for E. coli and 3.5 mg/mL for the other three strains). The resuspended cells were then incubated in the dark for 5 minutes at room temperature, centrifuged at 15,000 × g for 1 minute, washed twice with 1 mL of TBS, and subsequently resuspended in 200 µL of TBS. This final cell suspension was then prepared for microscopy as described for the Gram-positive bacterial strains. Comparative control experiments with 1 µg/mL BODIPY FL-COOH were conducted in K. pneumoniae ATCC 13883 cells as described above for BOFP.

[2] = system: FtsZ in E. faecium ATCC 19434 cells; test: as above; type: cell-based, Enterococcus faecium; conditions: 1 µg/mL for 5 minutes
Protocol: as §1
(§7) For visualizing FtsZ in Gram-positive bacteria using BOFP, the bacterial cells were grown to log-phase in media suitable for each individual pathogen. Specifically, S. aureus NRS705 (MRSA) was grown in tryptic soy broth (TSB), E. faecalis ATCC 29212 and E. faecium ATCC 19434 were grown in lactobacilli MRS broth, S. agalactiae ATCC 12386 and S. pneumoniae ATCC 49619 were grown in TH broth, and S. pyogenes ATCC 19615 was grown in CAMH broth supplemented with 3% (v/v) LHB. For each Gram-positive bacterial strain, a total of 1 mL of cell culture was centrifuged at 15,000 × g for 1 minute and washed 2–3 times with 1 mL of PBS. After the final wash, the pelleted cells were resuspended in 500 µL of PBS containing 1 µg/mL of BOFP and incubated in the dark for 5 minutes at room temperature. The cells were then centrifuged at 15,000 × g for 1 minute, washed twice with 1 mL of PBS, and subsequently resuspended in 200 µL of PBS. […]

[3] = biological target: T1, FtsZ in E. faecalis ATCC 29212 cells (Enterococcus faecalis, UniProt O08439); test: as above; type: cell-based; conditions: 1 µg/mL for 5 minutes
T1 construct: host or cells: E. faecalis ATCC 29212
T1 sequence (O08439 whole entry): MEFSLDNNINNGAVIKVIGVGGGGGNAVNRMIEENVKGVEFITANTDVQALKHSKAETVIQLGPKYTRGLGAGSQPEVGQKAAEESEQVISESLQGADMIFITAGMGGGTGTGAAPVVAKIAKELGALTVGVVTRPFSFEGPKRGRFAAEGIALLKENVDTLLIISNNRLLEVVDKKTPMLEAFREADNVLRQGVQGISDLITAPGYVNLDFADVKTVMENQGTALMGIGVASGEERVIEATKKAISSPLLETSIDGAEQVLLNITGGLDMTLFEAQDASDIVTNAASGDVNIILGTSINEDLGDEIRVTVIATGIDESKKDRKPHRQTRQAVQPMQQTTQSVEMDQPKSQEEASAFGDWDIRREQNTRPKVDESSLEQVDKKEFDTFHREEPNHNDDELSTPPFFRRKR
Protocol: as §1, §7

[4] = calculated at T = 310 K (37 °C) from Kd
[5] = from linear fit of ln(1/Kd) vs. 1/T

In the case of `CC1=CC(C)=[N+]2C1=Cc1ccc(CCC(=O)OCC(Oc3ccc(F)c(C(N)=O)c3F)c3nc(-c4ccc(C(F)(F)F)cc4)c(Br)o3)n1[B-]2(F)F` (stereo not drawn) [BOFP], the “Colocalization of BOFP green fluorescence with FtsZ-mCherry red fluorescence” value (MRSA LAC FtsZ-mCherry) is reported as “colocalizes with the red fluorescence”, the Kd (S. pyogenes (SpyFtsZ); 15 °C, read-out: Kd - 15 °C) is reported as 910 ± 60 nM and the Kd (S. pyogenes (SpyFtsZ); 25 °C, read-out: Kd - 25 °C) is reported as 1310 ± 80 nM. It also gave a Kd (S. pyogenes (SpyFtsZ); 37 °C, read-out: Kd - 37 °C) of 1550 ± 80 nM, a ΔG (S. pyogenes (SpyFtsZ); [4]) of -8.2 ± 0.1 kcal/mol and a ΔH (S. pyogenes (SpyFtsZ); [5]) of -4.3 ± 1.1 kcal/mol. It also gave a Kd (K. pneumoniae (KpFtsZ); 15 °C, read-out: Kd - 15 °C) of 420 ± 50 nM, a Kd (K. pneumoniae (KpFtsZ); 25 °C, read-out: Kd - 25 °C) of 580 ± 40 nM and a Kd (K. pneumoniae (KpFtsZ); 37 °C, read-out: Kd - 37 °C) of 820 ± 40 nM. For the same compound, the ΔG (K. pneumoniae (KpFtsZ); [4]) was -8.6 ± 0.1 kcal/mol, the ΔH (K. pneumoniae (KpFtsZ); [5]) was -5.4 ± 0.1 kcal/mol and the “Fluorescence staining / FtsZ labeling in live cells” value ([1]; co-treated with 3.5 mg/mL pentamidine isethionate) was “bright fluorescence staining becomes visible both at midcell and along the cell periphery”. The “Fluorescence staining / FtsZ labeling in live cells” value ([1]; without pentamidine isethionate) was “little or no FtsZ labeling”, the “Fluorescence staining / FtsZ labeling in live cells” value [2] was “bright bands of fluorescence staining are clearly visible at midcell” and the “Fluorescence staining / FtsZ labeling in live cells” value [3] was “bright bands of fluorescence staining are clearly visible at midcell”.

Reference: article PMC6934700, “Structure-Guided Design of a Fluorescent Probe for the Visualization of FtsZ in Clinically Important Gram-Positive and Gram-Negative Bacterial Pathogens” (Scientific Reports, 2019)
